This is an account of results in US5063045A, “Method for evaluating antiallergic substances” (Nippon Zoki Pharmaceutical Co., Ltd., priority 1989, dated 1991).

Counter-ions that a name gives are not always drawn.

Assay [1] has as its system actively sensitized guinea pigs. Briefly: Nasal secretion on repeated nasal provocations with ovalbumin in actively sensitized guinea pigs. Conditions: 1.0 mg/kg/day p.o. Format: in vivo, guinea pig. Here is the method: Active sensitization was carried out in a manner similar to the preparation of anti-ovalbumin serum mentioned above. Namely, 1 μg ovalbumin and 5 mg of aluminum hydroxide (adjuvant) in 1 ml of saline were injected into guinea pigs intraperitoneally 6 times every 2 weeks.
Two weeks after the active sensitization with ovalbumin, 50 μl of 1% ovalbumin in saline was administered into both anterior nares to start nasal provocation with allergen. Then the nasal provocations with ovalbumin were repeated 1, 4, 7, 10 and 13 days after the first provocation.
Defatted cotton threads (No. 40/2) were dyed with 10% fluorescein-Na in physiological saline at one end, and were cut to a total length of 100 mm with the colored end 10 mm in length. About 15 mm of the colored end of the thread was inserted into the left anterior naris of the guinea pigs for 60 sec. The length of thread dyed with fluorescein due to nasal secretion was taken as a measure of the amount of nasal secretion. (A few threads can be used together when the amount of nasal secretion is large).
Enhanced nasal mucosal sensitivity was measured by using animals obtained by repeated nasal provocations with ovalbumin in actively sensitized guinea pigs with the allergen according to the method of Examples 4, 5 and 6. The inhibitory action for nasal secretion of Ketotifen fumarate (1.0 mg/kg/day, p.o.) was also measured using this assay system.

Assay [2] has as its system passively sensitized SART stressed guinea pigs. Briefly: Nasal secretion (dyed thread length) after nasal provocation with ovalbumin in passively sensitized SART stressed guinea pigs. Format: in vivo, guinea pig (male Hartley strain). The settings on record: for Inhibition: inhibition of nasal secretion vs control. Here is the method:
Male Hartley strain guinea pigs weighing 300 to 500 g were used. The threshold of nasal mucosal sensitivity to methacholine of these animals was previously measured with a nasal thread dyed with fluorescein, and those guinea pigs having normal sensitivity were divided into groups of 7 or 8 animals making the average of the threshold of sensitivity substantially equal in each group. To load SART stress, the guinea pigs were kept in a thermostatic box at the environmental temperature of 0° C. and 24° C. alternately for one hour period from 10:00 a.m. to 5:00 p.m., and at 0° C. from 5:00 p.m. to 10:00 a.m. the next day. This stress loading was continued for 5 days prior to sensitization. The stress-loaded guinea pigs from the previous example were sensitized intraperitoneally using 20 μg of ovalbumin and 10 mg of aluminum hydroxide (adjuvant) in 1 ml of saline 7 times every 2 weeks. After 2 weeks of the sensitization, airway sensitization was performed by ultranebulization with 3 ml of 0.1% ovalbumin in saline for 5 consecutive days. One week later, nasal provocation was performed by application of 50 μl of 1% ovalbumin in saline on both anterior nares, and antiserum was collecting from guinea pigs showing typical nasal symptoms of nasal allergy such as sneeze, nasal secretion and asthma. This anti-ovalbumin serum was preserved at -80° C. The provocation was made by application of 50 μl of 1% ovalbumin on the left anterior naris 2 days after passive sensitization by intraperitoneally injecting 2 ml of diluted anti-ovalbumin serum from the previous example (diluted ratio;×1/8). […] Defatted cotton threads (No. 40/2) were dyed with 10% fluorescein-Na in physiological saline at one end, and were cut to a total length of 100 mm with the colored end 10 mm in length. About 15 mm of the colored end of the thread was inserted into the left anterior naris of the guinea pigs for 60 sec. The length of thread dyed with fluorescein due to nasal secretion was taken as a measure of the amount of nasal secretion. (A few threads can be used together when the amount of nasal secretion is large). […] The amount of nasal secretion was measured by the length of the colored portion of the thread dyed with fluorescein.

The mark [3] stands for this setting: Ketotifen fumarate 0.3 mg/kg/day p.o.
[4] abbreviates: Ketotifen fumarate 1.0 mg/kg/day p.o.
The mark [5] stands for this setting: Ketotifen fumarate 3.0 mg/kg/day p.o.

On to `CN1CCC(=C2c3ccccc3CC(=O)c3sccc32)CC1` [Ketotifen, Ketotifen fumarate], for which the Nasal secretion turned out to be 68.9 mm in assay [1] (1st provocation with allergen); 54.1 mm in assay [1] (2nd provocation with allergen (1 day)); 73.0 mm in assay [1] (3rd provocation with allergen (4 days)); 68.5 mm in assay [1] (4th provocation with allergen (7 days)); 77.3 mm in assay [1] (5th provocation with allergen (10 days)); 96.9 mm in assay [1] (6th provocation with allergen (13 days)). Further, the Nasal secretion came to 33.5 mm in assay [2] (setting [3]), 23.9 mm in assay [2] (setting [4]) and 16.1 mm in assay [2] (setting [5]). Besides, the figures for the Inhibition in assay [2] (setting [3]), in assay [2] (setting [4]) and in assay [2] (setting [5]) were 25.5%, 46.9% and 64.2%, respectively.
